Laboratory results: patent publication EP0369088A1, “Use of zinc acexamate in the prophylaxis of gastropathy induced by non-steroidal anti-inflammatory drugs” (LABORATORIOS VINAS S.A., priority 1988, dated 1990)

What was measured:
Format in all cases: in vivo, rat (Sprague Dawley)
[1] = test system: Phenylbutazone-induced lesions; assay: Phenylbutazone-induced gastric lesions in the rat, protective effect of ZAC; details: phenylbutazone total dose 80 mg/kg in two halves 2 hours apart, mean ± SD, n 10, control 2.8 ± 0.4, p<0.01
Excerpt: (§1) In view of the more or less serious gastric intolerance to the different anti-inflammatory drugs, the possibility of inhibiting this side effect by way of the protective action of zinc acexamate (ZAC) has been considered. Therefore, the protective effect of ZAC against gastric lesions induced by the most characteristic NSAIDs has been studied. The animal of election was the rat (Sprague Dawley), which was sacrificed after treatment with ZAC and NSAID. The stomach was extirpated, and macro and microscopic evaluations were made. The macroscopic evaluation was made following the method of Adami (1964, Arch. Int. Pharmacodyn., 147: 113-45) with slight modifications, consisting of evaluating the gravity and extension of the lesions, using a points system evaluating the lesions according to the number and/or size thereof. 0 - no lesion 1 - irritation or presence of a hemorrhagic area 2 - from 1 to 5 small ulcers 3 - many small ulcers (more than 5) or 1 large one 4 - many large ulcers 5 - perforated ulcer
The overall value of the lesions is obtained by adding up the score of the lesions determined.
An additional, anti-ulcer activity index was calculated for phenylbutazone, obtained by expressing the lesion indexes as an inhibition percentage relative to the control group. The dose-response curve was determined from the percentages and the theoretical ED₅₀ was determined from the curve.
A total dose of 80 mg/kg of phenylbutazone was administered, half at the start of the experiment and the other half after 2 hours. The ZAC doses used were 75, 150 and 300 mg/kg. The animals were sacrificed 4 hours after the last ZAC administration.

Aspirin-induced lesions = assay: Aspirin-induced gastric lesions in the rat, protective effect of ZAC; details: aspirin two doses of 200 mg/kg p.o. 12 hours apart, mean ± SD, n 10, p<0.01; for Macroscopic index: control 3.4 ± 0.2; for Microscopic index: scale 0 to 5, control 3.0 ± 0.3
Excerpt: as §1, with “of zinc […]) has been” for “of zinc acexamate (ZAC) has been”, “with slight modifications, consisting of” for “with slight modifications, consisting of”, “perforated ulcer The overall value of the lesions is obtained by adding up the score of the lesions determined. Half of the stomachs of each animal group was taken for hystological processing, the microscopic lesions being valued according to a scale of 0 to 5, 0 being a lesion-free mucous membrane and 5 representing multiple erosions with hemorrhagic subfusions. two doses of 200 mg/kg p.o. were administered spaced apart by 12 hours. In both cases, ZAC was tested at dosages of: 50, 100 and 150 mg/kg and a control group received water.” for “perforated ulcer”

[2] = test system: Indomethacin-induced lesions; assay: Indomethacin-induced gastric lesions in the rat, protective effect of ZAC; details: ZAC 200 mg/kg, indomethacin total 20 mg/kg in two doses of 10 mg/kg 12 hours apart, mean ± SD, p<0.01
Excerpt: as §1, with “of zinc […]) has been” for “of zinc acexamate (ZAC) has been”, “with slight modifications, consisting of” for “with slight modifications, consisting of”, “perforated ulcer The overall value of the lesions is obtained by adding up the score of the lesions determined. Half of the stomachs of each animal group was taken for hystological processing, the microscopic lesions being valued according to a scale of 0 to 5, 0 being a lesion-free mucous membrane and 5 representing multiple erosions with hemorrhagic subfusions. […]” for “perforated ulcer”

[3] = test system: Ibuprofen-induced lesions; assay: Ibuprofen-induced gastric lesions in the rat, protective effect of ZAC; details: ibuprofen single 200 mg/kg dose, mean ± SD; for Macroscopic index: n 10, control 2.4 ± 0.3; for Microscopic index: scale 0 to 5, n 5, control 2.8 ± 0.4
Excerpt: as §1, with “of zinc […]) has been” for “of zinc acexamate (ZAC) has been”, “with slight modifications, consisting of” for “with slight modifications, consisting of”, “perforated ulcer The overall value of the lesions is obtained by adding up the score of the lesions determined. Half of the stomachs of each animal group was taken for hystological processing, the microscopic lesions being valued according to a scale of 0 to 5, 0 being a lesion-free mucous membrane and 5 representing multiple erosions with hemorrhagic subfusions. a single 200 mg/kg dose was administered. In both cases, ZAC was tested at dosages of: 50, 100 and 150 mg/kg and a control group received water.” for “perforated ulcer”

Work on zinc acexamate [ZAC] yielded a Macroscopic index ([1]; ZAC 75 mg/kg) of 1.3 ± 0.5, a Macroscopic index ([1]; ZAC 150 mg/kg) of 0.4 ± 0.3 and a Macroscopic index ([1]; ZAC 300 mg/kg) of 2.0 ± 0.2. It also gave a Macroscopic index (Aspirin-induced lesions; ZAC 50 mg/kg) of 2.3 ± 0.3, a Microscopic index (Aspirin-induced lesions; ZAC 50 mg/kg) of 1.8 ± 0.2 and a Macroscopic index (Aspirin-induced lesions; ZAC 100 mg/kg) of 2.1 ± 0.3. For the same substance, the Microscopic index (Aspirin-induced lesions; ZAC 100 mg/kg) was 2.0 ± 0.2, the Macroscopic index (Aspirin-induced lesions; ZAC 150 mg/kg) was 1.9 ± 0.3 and the Microscopic index (Aspirin-induced lesions; ZAC 150 mg/kg) was 2.3 ± 0.2. The Macroscopic index ([2]; n 10, control 4.3 ± 0.4) was 1.8 ± 0.3, the Microscopic index ([2]; scale 0 to 5, n 5, control 4.0 ± 0.7) was 5 2.1 ± 0.2 and the Macroscopic index ([3]; ZAC 50 mg/kg, p<0.01) was 1.6 ± 0.4. The Microscopic index ([3]; ZAC 50 mg/kg, p<0.05) was 2.2 ± 0.2, the Macroscopic index ([3]; ZAC 100 mg/kg, p<0.01) was 1.7 ± 0.3 and the Microscopic index ([3]; ZAC 100 mg/kg, NS) was 2.4 ± 0.2 NS. The Macroscopic index ([3]; ZAC 150 mg/kg, p<0.01) was 1.5 ± 0.2 and the Microscopic index ([3]; ZAC 150 mg/kg, p<0.01) was 2.0 ± 0.03.
